Laboratory results from PubChem BioAssay AID248 (DTP/NCI, 2004).
Where “and” joins values, the source holds several entries; their conditions need not be identical. Equal values may be shown once. Inconclusive results and toxic doses are left out.

Test system: L1210 leukemia ip in BDF1 mice, survival T/C
Assay: NCI In Vivo Anticancer Drug Screen. Data for tumor model L1210 Leukemia (intraperitoneal) in B6D2F1 (BDF1) mice
Conditions: endpoint: mean survival time, higher = longer survival
Method in brief: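 Transplanted-tumor mice were given test agent; controls received vehicle only. Survival readings from the two groups were divided (treated over control).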

[1] = dose: 50.0 mg/kg/injection, schedule: Q01DX001 (ip), vehicle: carboxymethylcellulose (CMC)
[2] = dose: 100.0 mg/kg/injection, schedule: Q01DX001 (ip), vehicle: carboxymethylcellulose (CMC)
[3] = dose: 200.0 mg/kg/injection, schedule: Q01DX001 (ip), vehicle: carboxymethylcellulose (CMC)
[4] = dose: 400.0 mg/kg/injection, schedule: Q01DX001 (ip), vehicle: carboxymethylcellulose (CMC)
[5] = dose: 100.0 mg/kg/injection, schedule: Q01DX001 (ip), vehicle: Klucel (hydroxypropylcellulose) (HPC)
[6] = dose: 200.0 mg/kg/injection, schedule: Q01DX001 (ip), vehicle: Klucel (hydroxypropylcellulose) (HPC)
[7] = dose: 100.0 mg/kg/injection, schedule: Q01DX009 (ip), vehicle: Klucel (hydroxypropylcellulose) (HPC)
[8] = dose: 200.0 mg/kg/injection, schedule: Q01DX009 (ip), vehicle: Klucel (hydroxypropylcellulose) (HPC)
[9] = dose: 400.0 mg/kg/injection, schedule: Q04DX002 (ip), vehicle: Klucel (hydroxypropylcellulose) (HPC)
[10] = dose: 25.0 mg/kg/injection, schedule: Q04DX002 (ip), vehicle: saline with Tween-80
[11] = dose: 50.0 mg/kg/injection, schedule: Q04DX002 (ip), vehicle: saline with Tween-80
[12] = dose: 100.0 mg/kg/injection, schedule: Q04DX002 (ip), vehicle: saline with Tween-80
[13] = dose: 100.0 mg/kg/injection, schedule: Q04DX003 (ip), vehicle: saline

SMILES: Cc1c2c(n(C)c1C(=O)N1CCOCC1)CCCC2=O
- T/C (dose: 100.0 mg/kg/injection, schedule: Q04DX003 (ip), vehicle: carboxymethylcellulose (CMC)): 101 % of control
- T/C (dose: 200.0 mg/kg/injection, schedule: Q04DX003 (ip), vehicle: carboxymethylcellulose (CMC)): 98 % of control
- T/C (dose: 400.0 mg/kg/injection, schedule: Q04DX003 (ip), vehicle: carboxymethylcellulose (CMC)): 98 % of control

SMILES: O=C(N/N=C/c1ccc2c(c1)CCC2)c1cccc(O)c1
- T/C (dose: 100.0 mg/kg/injection, schedule: Q04DX003 (ip), vehicle: Klucel (hydroxypropylcellulose) (HPC)): 96 % of control
- T/C (dose: 200.0 mg/kg/injection, schedule: Q04DX003 (ip), vehicle: Klucel (hydroxypropylcellulose) (HPC)): 95 % of control
- T/C (dose: 400.0 mg/kg/injection, schedule: Q04DX003 (ip), vehicle: Klucel (hydroxypropylcellulose) (HPC)): 91 % of control

SMILES: COc1ccc(C2(O)C3CCC(C3)C2(C)C)cc1 (stereo not given)
- T/C [1]: 89 % of control
- T/C [2]: 89 % of control
- T/C [3]: 89 % of control
- T/C [4]: 95 % of control

SMILES: C1SCC12CSC2
- T/C (dose: 6.25 mg/kg/injection, schedule: Q01DX001 (ip), vehicle: saline with Tween-80): 93 % of control
- T/C (dose: 12.5 mg/kg/injection, schedule: Q01DX001 (ip), vehicle: saline with Tween-80): 96 % of control
- T/C (dose: 25.0 mg/kg/injection, schedule: Q01DX001 (ip), vehicle: saline with Tween-80): 104 % of control

SMILES: Cc1cc(C(c2ccccc2)c2ccccc2)cc(C)c1O
- T/C [5]: 98 % of control
- T/C [6]: 93 % of control
- T/C (dose: 400.0 mg/kg/injection, schedule: Q01DX001 (ip), vehicle: Klucel (hydroxypropylcellulose) (HPC)): 92 % of control

SMILES: CCc1ccccc1NC(=O)Nc1nccs1
- T/C [7]: 116 % of control
- T/C [8]: 110 % of control

SMILES: NC(Cc1cccnc1)C(=O)O (stereo not given)
- T/C (dose: 100.0 mg/kg/injection, schedule: Q01DX001 (ip), vehicle: saline with Tween-80): 109 % of control
- T/C (dose: 200.0 mg/kg/injection, schedule: Q01DX001 (ip), vehicle: saline with Tween-80): 103 % of control
- T/C (dose: 400.0 mg/kg/injection, schedule: Q01DX001 (ip), vehicle: saline with Tween-80): 98 % of control

SMILES: NC(CSS(=O)(=O)O)=NCCCC1CCCCC1
- T/C (dose: 6.25 mg/kg/injection, schedule: Q04DX002 (ip), vehicle: saline with Tween-80): 97 % of control
- T/C (dose: 12.5 mg/kg/injection, schedule: Q04DX002 (ip), vehicle: saline with Tween-80): 101 % of control

SMILES: NC1CON(C(c2ccccc2)(c2ccccc2)c2ccccc2)C1=O (stereo not given)
- T/C [2]: 94 % of control
- T/C [3]: 89 % of control

SMILES: COc1ccc2c(c1OC)CCN1C3=C(CC4(CC3)OCCO4)C(=O)CC21 (stereo not given)
- T/C (dose: 100.0 mg/kg/injection, schedule: Q04DX003 (ip), vehicle: saline with Tween-80): 97 % of control
- T/C (dose: 200.0 mg/kg/injection, schedule: Q04DX003 (ip), vehicle: saline with Tween-80): 88 % of control
- T/C (dose: 400.0 mg/kg/injection, schedule: Q04DX003 (ip), vehicle: saline with Tween-80): 101 % of control

SMILES: CCCSC(CCc1cnc(N)nc1C)SCCC
- T/C [9]: 94 % of control

SMILES: O=c1[nH]c(-c2ccccc2)nc2c1OCN(Cc1ccccc1)C2
- T/C [1]: 98 % of control
- T/C [2]: 101 % of control
- T/C [3]: 98 % of control
- T/C [4]: 93 % of control

SMILES: CCOP(=O)(OCC)SC=C(Cl)Cl
- T/C [10]: 94 % of control
- T/C [11]: 91 % of control
- T/C [12]: 94 % of control and 95 % of control

SMILES: CSC(SC)C(O)C(O)C(O)C(O)CO (stereo not given)
- T/C (dose: 50.0 mg/kg/injection, schedule: Q04DX002 (ip), vehicle: saline): 103 % of control
- T/C (dose: 100.0 mg/kg/injection, schedule: Q04DX002 (ip), vehicle: saline): 113 % of control
- T/C (dose: 200.0 mg/kg/injection, schedule: Q04DX002 (ip), vehicle: saline): 92 % of control

SMILES: Clc1ccc(C=Nc2cccc3ccccc23)c(Cl)c1
- T/C [7]: 90 % of control
- T/C [8]: 98 % of control
- T/C (dose: 400.0 mg/kg/injection, schedule: Q01DX009 (ip), vehicle: Klucel (hydroxypropylcellulose) (HPC)): 93 % of control

SMILES: CCC/C(=N/NC(=O)c1ccccc1)c1ccccc1
- T/C (dose: 100.0 mg/kg/injection, schedule: Q04DX002 (ip), vehicle: Klucel (hydroxypropylcellulose) (HPC)): 110 % of control
- T/C (dose: 200.0 mg/kg/injection, schedule: Q04DX002 (ip), vehicle: Klucel (hydroxypropylcellulose) (HPC)): 110 % of control
- T/C [9]: 100 % of control

SMILES: CC(=O)/C=C/c1ccc([N+](=O)[O-])o1
- T/C [5]: 116 % of control
- T/C [6]: 121 % of control

SMILES: C#CCN(CC#C)C(=O)Nc1ccc(Cl)cc1
- T/C [10]: 96 % of control
- T/C [11]: 96 % of control
- T/C [12]: 99 % of control and 106 % of control

SMILES: CCNCCCCCCNCC
- T/C (dose: 12.5 mg/kg/injection, schedule: Q01DX009 (ip), vehicle: saline): 97 % of control
- T/C (dose: 25.0 mg/kg/injection, schedule: Q01DX009 (ip), vehicle: saline): 108 % of control
- T/C (dose: 25.0 mg/kg/injection, schedule: Q04DX003 (ip), vehicle: saline): 98 % of control
- T/C (dose: 50.0 mg/kg/injection, schedule: Q01DX009 (ip), vehicle: saline): 93 % of control
- T/C (dose: 50.0 mg/kg/injection, schedule: Q04DX003 (ip), vehicle: saline): 107 % of control
- T/C [13]: 87 % of control

SMILES: [CH3][Sn]([Br])([Br])[CH2]CCCBr
- T/C (dose: 1.56 mg/kg/injection, schedule: Q01DX009 (ip), vehicle: saline): 103 % of control
- T/C (dose: 3.12 mg/kg/injection, schedule: Q01DX009 (ip), vehicle: saline): 112 % of control
- T/C (dose: 6.25 mg/kg/injection, schedule: Q01DX009 (ip), vehicle: saline): 100 % of control

SMILES: CCCCCC[N+](C)(C)CCOC(=O)C1C2CC3OC(=O)C1C3C2 (stereo not given)
- T/C [13]: 97 % of control
